Data from the kinase profiling compilation of Christmann-Franck et al. (2016).

Columns and labels:
Test in all cases: radiometric filter-binding kinase assay
MYLK (human) = MYLK (human) (UniProt Q15746); details: ATP 50 µM
INSR (human) = INSR (human) (UniProt P06213); details: ATP 20 µM
YES1 (human) = YES1 (human) (UniProt P07947); details: ATP 20 µM
MAPK9 (human) = MAPK9 (human) (UniProt P45984); details: ATP 20 µM
MAPKAPK2 (human) = MAPKAPK2 (human) (UniProt P49137); details: ATP 20 µM
FGFR1 (human) = FGFR1 (human) (UniProt P11362); details: ATP 20 µM
PI4KA (human) = PI4KA (human) (UniProt P42356)
SYK (human) = SYK (human) (UniProt P43405); details: ATP 20 µM
DYRK1A (human) = DYRK1A (human) (UniProt Q13627); details: ATP 50 µM
SRPK1 (human) = SRPK1 (human) (UniProt Q96SB4); details: ATP 50 µM
Sequence of SRPK1 (human) (Q96SB4 whole entry, looked up): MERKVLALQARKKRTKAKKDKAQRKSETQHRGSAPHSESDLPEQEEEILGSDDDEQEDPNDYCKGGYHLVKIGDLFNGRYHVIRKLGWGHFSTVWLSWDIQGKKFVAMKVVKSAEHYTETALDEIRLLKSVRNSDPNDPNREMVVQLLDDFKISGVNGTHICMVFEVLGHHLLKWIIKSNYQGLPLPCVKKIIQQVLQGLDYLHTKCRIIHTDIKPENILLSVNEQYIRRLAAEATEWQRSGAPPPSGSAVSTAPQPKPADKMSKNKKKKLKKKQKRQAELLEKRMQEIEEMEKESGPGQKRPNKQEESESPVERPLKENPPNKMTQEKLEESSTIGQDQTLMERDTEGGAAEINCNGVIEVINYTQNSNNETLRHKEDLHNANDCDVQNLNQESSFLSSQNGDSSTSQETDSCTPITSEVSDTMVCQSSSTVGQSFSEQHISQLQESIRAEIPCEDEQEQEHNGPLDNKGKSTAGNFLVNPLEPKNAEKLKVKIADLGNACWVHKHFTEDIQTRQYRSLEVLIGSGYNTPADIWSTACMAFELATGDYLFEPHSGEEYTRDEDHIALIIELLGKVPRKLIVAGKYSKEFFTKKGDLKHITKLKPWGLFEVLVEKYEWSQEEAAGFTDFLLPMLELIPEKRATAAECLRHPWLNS

GSK3B (human) = GSK3B (human) (UniProt P49841); details: ATP 5 µM
MAPKAPK5 (human) = MAPKAPK5 (human) (UniProt Q8IW41); details: ATP 20 µM
Sequence of MAPKAPK5 (human) (Q8IW41 whole entry, looked up): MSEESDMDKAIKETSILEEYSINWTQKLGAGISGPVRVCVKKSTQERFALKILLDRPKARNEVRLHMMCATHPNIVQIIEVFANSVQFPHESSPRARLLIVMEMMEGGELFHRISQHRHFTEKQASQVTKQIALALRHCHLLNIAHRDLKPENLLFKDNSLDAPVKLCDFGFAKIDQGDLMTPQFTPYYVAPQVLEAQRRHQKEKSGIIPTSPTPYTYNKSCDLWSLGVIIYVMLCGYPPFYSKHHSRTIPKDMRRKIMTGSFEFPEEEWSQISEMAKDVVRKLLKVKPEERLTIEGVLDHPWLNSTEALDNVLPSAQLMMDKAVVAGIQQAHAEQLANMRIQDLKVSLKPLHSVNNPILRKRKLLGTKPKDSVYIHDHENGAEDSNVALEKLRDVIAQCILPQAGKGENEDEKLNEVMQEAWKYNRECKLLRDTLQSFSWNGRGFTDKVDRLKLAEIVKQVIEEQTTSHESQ

CHEK2 (human) = CHEK2 (human) (UniProt O96017); details: ATP 20 µM
EEF2K (human) = EEF2K (human) (UniProt O00418); details: ATP 5 µM
Sequence of EEF2K (human) (O00418 whole entry, looked up): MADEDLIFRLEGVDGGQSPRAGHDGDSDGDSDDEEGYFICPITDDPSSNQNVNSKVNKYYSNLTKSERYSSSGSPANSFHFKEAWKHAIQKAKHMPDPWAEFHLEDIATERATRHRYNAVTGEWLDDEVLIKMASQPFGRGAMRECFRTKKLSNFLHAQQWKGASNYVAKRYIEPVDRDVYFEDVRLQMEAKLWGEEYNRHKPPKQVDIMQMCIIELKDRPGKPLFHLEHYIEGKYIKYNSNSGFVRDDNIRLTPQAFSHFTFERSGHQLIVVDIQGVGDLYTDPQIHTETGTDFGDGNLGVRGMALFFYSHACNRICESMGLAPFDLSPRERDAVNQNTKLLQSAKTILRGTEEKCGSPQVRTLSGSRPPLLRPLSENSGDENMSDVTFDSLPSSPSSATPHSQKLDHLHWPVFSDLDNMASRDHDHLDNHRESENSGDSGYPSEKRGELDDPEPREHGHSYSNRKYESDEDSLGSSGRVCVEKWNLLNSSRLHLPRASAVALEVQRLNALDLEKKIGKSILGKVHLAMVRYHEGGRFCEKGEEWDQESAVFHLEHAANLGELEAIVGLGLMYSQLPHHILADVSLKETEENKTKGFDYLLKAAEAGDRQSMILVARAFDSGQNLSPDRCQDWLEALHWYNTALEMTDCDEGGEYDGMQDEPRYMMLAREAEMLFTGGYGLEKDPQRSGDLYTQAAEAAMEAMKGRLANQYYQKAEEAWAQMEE

PI4KB (human) = PI4KB (human) (UniProt Q9UBF8)
RPS6KA5 KD1 KD2 (human) = RPS6KA5 KD1 KD2 (human) (UniProt O75582); details: ATP 100 µM
Sequence of RPS6KA5 KD1 KD2 (human) (O75582 whole entry, looked up): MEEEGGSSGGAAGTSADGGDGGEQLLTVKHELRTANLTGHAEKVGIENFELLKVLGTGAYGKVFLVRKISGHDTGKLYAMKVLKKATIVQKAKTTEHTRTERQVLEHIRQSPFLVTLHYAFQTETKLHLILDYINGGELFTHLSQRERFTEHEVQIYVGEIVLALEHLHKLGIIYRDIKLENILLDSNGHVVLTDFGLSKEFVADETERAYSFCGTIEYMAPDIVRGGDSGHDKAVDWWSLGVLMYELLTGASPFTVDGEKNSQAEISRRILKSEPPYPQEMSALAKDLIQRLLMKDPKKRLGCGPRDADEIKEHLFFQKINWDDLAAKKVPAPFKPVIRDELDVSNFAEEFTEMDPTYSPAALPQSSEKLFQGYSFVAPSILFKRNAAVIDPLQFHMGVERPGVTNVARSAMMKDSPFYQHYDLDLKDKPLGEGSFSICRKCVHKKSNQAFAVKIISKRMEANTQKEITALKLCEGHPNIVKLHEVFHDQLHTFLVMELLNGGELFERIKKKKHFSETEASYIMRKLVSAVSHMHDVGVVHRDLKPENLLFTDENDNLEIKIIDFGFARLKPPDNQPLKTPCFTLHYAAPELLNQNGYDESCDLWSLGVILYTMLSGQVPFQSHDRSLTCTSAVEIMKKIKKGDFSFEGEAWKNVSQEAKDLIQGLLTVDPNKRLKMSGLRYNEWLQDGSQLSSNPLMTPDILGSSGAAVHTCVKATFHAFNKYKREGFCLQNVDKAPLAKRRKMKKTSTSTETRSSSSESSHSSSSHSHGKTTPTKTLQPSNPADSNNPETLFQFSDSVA

PLK1 (human) = PLK1 (human) (UniProt P53350); details: ATP 5 µM
MAPK12 (human) = MAPK12 (human) (UniProt P53778); details: ATP 5 µM
PKN2 (human) = PKN2 (human) (UniProt Q16513); details: ATP 5 µM
Sequence of PKN2 (human) (Q16513 whole entry, looked up): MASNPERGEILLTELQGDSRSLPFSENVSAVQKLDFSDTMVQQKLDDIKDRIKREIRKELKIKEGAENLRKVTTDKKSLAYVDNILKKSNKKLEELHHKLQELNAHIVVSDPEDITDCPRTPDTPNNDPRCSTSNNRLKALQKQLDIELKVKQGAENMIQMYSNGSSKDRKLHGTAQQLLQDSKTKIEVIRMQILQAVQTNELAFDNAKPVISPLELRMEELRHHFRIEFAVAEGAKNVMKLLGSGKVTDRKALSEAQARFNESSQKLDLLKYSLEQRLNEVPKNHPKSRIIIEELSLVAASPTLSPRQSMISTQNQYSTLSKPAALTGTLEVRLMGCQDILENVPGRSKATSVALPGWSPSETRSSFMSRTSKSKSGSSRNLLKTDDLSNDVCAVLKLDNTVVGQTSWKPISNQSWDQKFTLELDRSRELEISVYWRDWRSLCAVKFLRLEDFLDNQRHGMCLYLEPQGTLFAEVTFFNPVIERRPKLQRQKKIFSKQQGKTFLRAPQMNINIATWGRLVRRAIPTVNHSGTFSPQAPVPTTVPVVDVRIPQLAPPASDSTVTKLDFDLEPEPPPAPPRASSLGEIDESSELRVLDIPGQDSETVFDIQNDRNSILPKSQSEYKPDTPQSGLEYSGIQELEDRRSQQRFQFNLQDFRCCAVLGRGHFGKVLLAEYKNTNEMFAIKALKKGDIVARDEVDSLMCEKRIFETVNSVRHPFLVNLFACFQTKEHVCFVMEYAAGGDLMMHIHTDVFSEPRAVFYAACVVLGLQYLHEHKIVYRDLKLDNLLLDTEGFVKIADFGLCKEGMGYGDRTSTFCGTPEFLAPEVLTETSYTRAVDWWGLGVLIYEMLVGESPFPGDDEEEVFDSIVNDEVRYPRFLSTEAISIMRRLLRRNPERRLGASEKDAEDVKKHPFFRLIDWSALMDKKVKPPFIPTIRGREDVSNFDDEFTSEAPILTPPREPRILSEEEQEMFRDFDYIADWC

[1] = test system: SGK1 (human), O00141 [S422D]; details: ATP 20 µM
CSK (human) = CSK (human) (UniProt P41240); details: ATP 20 µM
DYRK2 (human) = DYRK2 (human) (UniProt Q92630); details: ATP 50 µM
NEK2 (human) = NEK2 (human) (UniProt P51955); details: ATP 50 µM
SRC (human) = SRC (human) (UniProt P12931); details: ATP 50 µM
BRSK2 (human) = BRSK2 (human) (UniProt Q8IWQ3); details: ATP 50 µM
Sequence of BRSK2 (human) (Q8IWQ3 whole entry, looked up): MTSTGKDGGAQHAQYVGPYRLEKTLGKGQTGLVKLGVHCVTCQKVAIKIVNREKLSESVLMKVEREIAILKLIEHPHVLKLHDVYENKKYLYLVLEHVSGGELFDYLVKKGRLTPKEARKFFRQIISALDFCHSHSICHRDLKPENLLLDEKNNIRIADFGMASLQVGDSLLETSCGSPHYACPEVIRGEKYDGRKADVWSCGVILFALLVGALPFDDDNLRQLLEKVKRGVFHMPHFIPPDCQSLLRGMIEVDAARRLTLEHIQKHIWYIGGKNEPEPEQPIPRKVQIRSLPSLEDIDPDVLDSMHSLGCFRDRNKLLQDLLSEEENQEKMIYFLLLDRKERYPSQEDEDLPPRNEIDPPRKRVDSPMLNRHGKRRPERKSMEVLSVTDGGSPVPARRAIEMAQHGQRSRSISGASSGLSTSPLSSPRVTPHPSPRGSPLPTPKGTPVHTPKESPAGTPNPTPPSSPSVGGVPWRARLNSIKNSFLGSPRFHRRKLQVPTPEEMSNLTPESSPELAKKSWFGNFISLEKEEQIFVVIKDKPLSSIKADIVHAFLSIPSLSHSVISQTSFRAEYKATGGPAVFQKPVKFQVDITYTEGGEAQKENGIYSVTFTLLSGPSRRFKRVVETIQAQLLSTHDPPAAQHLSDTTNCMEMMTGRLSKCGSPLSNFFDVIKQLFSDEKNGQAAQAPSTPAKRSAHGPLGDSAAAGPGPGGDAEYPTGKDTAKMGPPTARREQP

[2] = test system: RPS6KB1 (human), P23443 [T412E]; details: ATP 100 µM
PAK7 (human) = PAK7 (human) (UniProt Q9P286); details: ATP 20 µM
PAK6 (human) = PAK6 (human) (UniProt Q9NQU5); details: ATP 20 µM
MAPK14 (human) = MAPK14 (human) (UniProt Q16539); details: ATP 50 µM

Sequence of YES1 (human) (P07947 whole entry, looked up): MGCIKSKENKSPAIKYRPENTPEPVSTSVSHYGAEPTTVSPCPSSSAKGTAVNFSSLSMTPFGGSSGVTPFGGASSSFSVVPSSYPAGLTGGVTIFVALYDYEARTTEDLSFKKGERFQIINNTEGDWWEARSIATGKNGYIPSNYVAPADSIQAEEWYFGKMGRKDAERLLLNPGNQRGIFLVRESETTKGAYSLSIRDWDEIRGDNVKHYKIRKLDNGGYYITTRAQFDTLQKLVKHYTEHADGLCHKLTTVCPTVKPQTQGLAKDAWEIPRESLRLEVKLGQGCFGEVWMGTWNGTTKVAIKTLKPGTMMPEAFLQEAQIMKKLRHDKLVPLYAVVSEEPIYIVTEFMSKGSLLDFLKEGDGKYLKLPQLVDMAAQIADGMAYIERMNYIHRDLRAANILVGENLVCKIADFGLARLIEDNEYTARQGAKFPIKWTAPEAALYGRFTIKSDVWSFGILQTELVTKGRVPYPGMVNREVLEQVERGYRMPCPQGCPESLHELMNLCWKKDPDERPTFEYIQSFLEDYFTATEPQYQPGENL

residual activity (MYLK (human); compound 0.1 µM): 95%
residual activity (MYLK (human); compound 1.0 µM): 79%
residual activity (MYLK (human); compound 10.0 µM): 87%
residual activity (INSR (human); compound 0.1 µM): 108%
residual activity (INSR (human); compound 1.0 µM): 95%
residual activity (INSR (human); compound 10.0 µM): 96%
residual activity (YES1 (human); compound 0.1 µM): 98%
residual activity (YES1 (human); compound 1.0 µM): 84%
residual activity (YES1 (human); compound 10.0 µM): 76%
residual activity (MAPK9 (human); compound 0.1 µM): 92%
residual activity (MAPK9 (human); compound 1.0 µM): 93%
residual activity (MAPK9 (human); compound 10.0 µM): 98%
residual activity (MAPKAPK2 (human); compound 0.1 µM): 88%
residual activity (MAPKAPK2 (human); compound 1.0 µM): 105%
residual activity (MAPKAPK2 (human); compound 10.0 µM): 78%
residual activity (FGFR1 (human); compound 0.1 µM): 91%
residual activity (FGFR1 (human); compound 1.0 µM): 92%
residual activity (FGFR1 (human); compound 10.0 µM): 63%
residual activity (PI4KA (human); compound 1.0 µM): 106%
residual activity (PI4KA (human); compound 10.0 µM): 102%
residual activity (SYK (human); compound 0.1 µM): 121%
residual activity (SYK (human); compound 1.0 µM): 100%
residual activity (SYK (human); compound 10.0 µM): 91%
residual activity (DYRK1A (human); compound 0.1 µM): 99%
residual activity (DYRK1A (human); compound 1.0 µM): 94%
residual activity (DYRK1A (human); compound 10.0 µM): 85%
residual activity (SRPK1 (human); compound 0.1 µM): 108%
residual activity (SRPK1 (human); compound 1.0 µM): 106%
residual activity (SRPK1 (human); compound 10.0 µM): 101%
residual activity (GSK3B (human); compound 0.1 µM): 87%
residual activity (GSK3B (human); compound 1.0 µM): 96%
residual activity (GSK3B (human); compound 10.0 µM): 92%
residual activity (MAPKAPK5 (human); compound 0.1 µM): 114%
residual activity (MAPKAPK5 (human); compound 1.0 µM): 97%
residual activity (MAPKAPK5 (human); compound 10.0 µM): 87%
residual activity (CHEK2 (human); compound 0.1 µM): 101%
residual activity (CHEK2 (human); compound 1.0 µM): 73%
residual activity (CHEK2 (human); compound 10.0 µM): 72%
residual activity (EEF2K (human); compound 0.1 µM): 90%
residual activity (EEF2K (human); compound 1.0 µM): 73%
residual activity (EEF2K (human); compound 10.0 µM): 78%
residual activity (PI4KB (human); compound 1.0 µM): 103%
residual activity (PI4KB (human); compound 10.0 µM): 99%
IC50 (RPS6KA5 KD1 KD2 (human)): 950 nM
residual activity (RPS6KA5 KD1 KD2 (human); compound 0.1 µM): 80%
residual activity (RPS6KA5 KD1 KD2 (human); compound 1.0 µM): 42%
residual activity (RPS6KA5 KD1 KD2 (human); compound 10.0 µM): 14%
residual activity (PLK1 (human); compound 0.1 µM): 98%
residual activity (PLK1 (human); compound 1.0 µM): 87%
residual activity (PLK1 (human); compound 10.0 µM): 88%
residual activity (MAPK12 (human); compound 0.1 µM): 107%
residual activity (MAPK12 (human); compound 1.0 µM): 102%
residual activity (MAPK12 (human); compound 10.0 µM): 103%
residual activity (PKN2 (human); compound 0.1 µM): 95%
residual activity (PKN2 (human); compound 1.0 µM): 86%
residual activity (PKN2 (human); compound 10.0 µM): 84%
residual activity ([1]; compound 0.1 µM): 106%
residual activity ([1]; compound 1.0 µM): 74%
residual activity ([1]; compound 10.0 µM): 65%
residual activity (CSK (human); compound 0.1 µM): 94%
residual activity (CSK (human); compound 1.0 µM): 93%
residual activity (CSK (human); compound 10.0 µM): 98%
residual activity (DYRK2 (human); compound 0.1 µM): 97%
residual activity (DYRK2 (human); compound 1.0 µM): 104%
residual activity (DYRK2 (human); compound 10.0 µM): 101%
residual activity (NEK2 (human); compound 0.1 µM): 95%
residual activity (NEK2 (human); compound 1.0 µM): 94%
residual activity (NEK2 (human); compound 10.0 µM): 91%
residual activity (SRC (human); compound 0.1 µM): 103%
residual activity (SRC (human); compound 1.0 µM): 99%
residual activity (SRC (human); compound 10.0 µM): 92%
residual activity (BRSK2 (human); compound 0.1 µM): 88%
residual activity (BRSK2 (human); compound 1.0 µM): 84%
residual activity (BRSK2 (human); compound 10.0 µM): 83%
residual activity ([2]; compound 0.1 µM): 58%
residual activity ([2]; compound 1.0 µM): 23%
residual activity ([2]; compound 10.0 µM): 7%
residual activity (PAK7 (human); compound 0.1 µM): 100%
residual activity (PAK7 (human); compound 1.0 µM): 88%
residual activity (PAK7 (human); compound 10.0 µM): 87%
residual activity (PAK6 (human); compound 0.1 µM): 99%
residual activity (PAK6 (human); compound 1.0 µM): 83%
residual activity (PAK6 (human); compound 10.0 µM): 86%
residual activity (MAPK14 (human); compound 0.1 µM): 86%
residual activity (MAPK14 (human); compound 1.0 µM): 79%
residual activity (MAPK14 (human); compound 10.0 µM): 86%
Structure (SMILES): CCc1cncnc1N1CCN(Cc2nc3cc(C(F)(F)F)ccc3[nH]2)CC1
